Experimental data: BindingDB's records for PubMed 36971365 (Dongguk University, 2023)

Target: Signal transducer and activator of transcription 3 (Homo sapiens, UniProt P40763)
Test: Inhibition of STAT3 (unknown origin) transfected in human HepG2 cells assessed as inhibition of IL-6 induced STAT3 phosphorylation by luciferase reporter gene assay

Sequence of Signal transducer and activator of transcription 3 (P40763 whole entry): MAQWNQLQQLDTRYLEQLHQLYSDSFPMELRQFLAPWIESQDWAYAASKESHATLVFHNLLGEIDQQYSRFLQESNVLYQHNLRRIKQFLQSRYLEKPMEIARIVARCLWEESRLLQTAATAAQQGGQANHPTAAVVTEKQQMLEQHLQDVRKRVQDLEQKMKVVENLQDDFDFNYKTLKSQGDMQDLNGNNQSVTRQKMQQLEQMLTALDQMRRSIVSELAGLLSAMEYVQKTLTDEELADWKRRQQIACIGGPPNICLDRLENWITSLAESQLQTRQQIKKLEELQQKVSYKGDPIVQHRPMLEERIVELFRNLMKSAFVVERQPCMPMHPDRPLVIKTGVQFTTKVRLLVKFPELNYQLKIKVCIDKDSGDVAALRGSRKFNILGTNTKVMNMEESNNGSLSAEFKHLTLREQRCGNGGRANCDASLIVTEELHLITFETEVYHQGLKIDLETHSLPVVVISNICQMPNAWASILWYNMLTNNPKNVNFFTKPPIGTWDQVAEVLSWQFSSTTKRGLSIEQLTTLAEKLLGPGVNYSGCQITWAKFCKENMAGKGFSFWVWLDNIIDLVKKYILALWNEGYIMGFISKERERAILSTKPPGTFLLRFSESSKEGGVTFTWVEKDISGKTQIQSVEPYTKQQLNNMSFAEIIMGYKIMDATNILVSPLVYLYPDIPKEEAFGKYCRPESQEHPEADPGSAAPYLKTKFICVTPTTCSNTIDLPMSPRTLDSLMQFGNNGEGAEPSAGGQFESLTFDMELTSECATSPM

SMILES: C=C(CCCCC)[C@@H](O)[C@H](C)C(=O)N1C(=O)OC[C@@H]1C(C)C
- IC50: 5.9 µM
